This note sets out measurements from patent US20030207813A1, “Retroviral protease inhibitor combinations” (priority 1995, published 2003).

One experiment has as its system HIV-1RF. In words: CEM-T4 cell infection assay, reverse transcriptase readout, isolate RF. In kind it is cell-based. As to conditions: Human immunodeficiency virus 1, CEM-T4, 168 h, 7 days, read-out: Virus Isolate (EC50 ng/mL) RF. An excerpt: (§1) RF represents the HIV-1 strain HIV-LRF and RFR represents a mixture of resistant strains obtained by selection of RF against the compound of Example 1. RFR comprises a mixture of viral strains having protease genotypes of G48V (14/40 clones); G48V, V82A (18/40 clones); G48V, L90S (2/40 clones); G48V, 154T, V82A (1/40 clones); G48M (1/40 clones); G48V, Q61H (1/40 clones); V13I, G48V (1/40 clones); G48V, F53L, V82A (1/40 clones); and G48V, V82A, C95Y (1/40 clones). RFR2 represents a mixture of resistant strains obtained by cloning RFR by three rounds of growth at limiting dilution. RFR2 comprises a mixture of viral strains having protease genotypes of G48V, V82A (13/15 clones); G17E, G48V, V82A (1/15 clones); and G48V, V82A, N37D, N88D (1/15 clones). RFRR represents a mixture of resistant strains obtained by selection of RF against the compounds of Examples 1 and 2 and then cloning by three rounds of growth at limiting dilution. RFRR comprises a mixture of viral strains having protease genotypes of G48V, 154T, L63P, V82A (7/9 clones); G48V, 154T, L63P, V82A, N88S (1/9 clones); and G48V, 154T, L63P, G73M, V82A (1/9 clones). SF162 represents the HIV-1 strain SF-162 and SF162R represents a mixture of resistant strains obtained by selection of SF162 against the compound of Example 1. SF162R comprises a mixture of viral strains having protease genotypes of M461, F53L, L63P, A71V, N88D (2/3 clones); and M46I, F53L, L63P, A71V, N88D, Q92R (1/3 clones). 89-959 represents the HIV-1 strain 89-959 and 89-959R represents a mixture of resistant strains obtained by selection of 89-959 against the compound of Example 2. 89-959R comprises a mixture of viral strains having protease genotypes of N88S (4/5 clones); and D25N, T26A, D30N, D37N, R41K, G73D, R87K, N88S (1/4 clones). NL4 represents the HIV-1 strain HIV-1NL4-3. NL4(G48V) represents a strain having a synthetically generated site-directed mutation in the protease from glycine to valine at amino acid position number 48. NL4(I84V) represents a strain having a synthetically generated site-directed mutation in the protease from isoleucine to valine at amino acid position number 84. NL4(R8Q,M46I) represents a strain having synthetically generated site-directed mutations in the protease from arginine to glutamine at amino acid position number 8 and methionine to isoleucine at amino acid position number 46. NL4(P22-538) represents a mixture of resistant strains obtained by selection of HIV-1NL4-3 against the compound of Example 10 after 22 passages comprising protease genotypes M46I, L63P, A71V, V82F, I84V (4/10); M46I, L63P, V82F, I84V (3/10); and M46I, A71V, V82F, I84V (3/10). NL4(P37-538) represents resistant strains obtained by selection of HIV-1NL4-3 against the compound of Example 10 after 37 passages comprising protease genotype M46I, L63P, A71V, 184A. NL4(538/524) represents resistant strains obtained by selection of NL4(P22-538) against the compound of Example 5 after 24 passages comprising protease genotype M46I, L63P, A71V, 184A. NL4(538/P7-AG) represents a mixture of resistant strains obtained by selection of NL4(P22-538) against the compound of Example 12 after 7 passages comprising protease genotypes M46I, L63P, A71V, 184A; and V321, V82I. NL4(538/P24-AG) represents resistant strains obtained by selection of NL4(P22-538) against the compound of Example 12 after 24 passages comprising protease genotype M46I, L63P, A71V, 184A. NLA(P19-003) represents resistant strains obtained by selection of HIV-1^NL4-3 against the compound of Example 9 after 19 passages comprising protease genotype R8K, M46I. NL4(P34-003) represents resistant strains obtained by selection of HIV-1^NL4-3 against the compound of Example 9 after 34 passages comprising protease genotype R8K, M46I, L63P, A71V, L90M.
(§2) The viral isolate resistance results summarized in Tables 4-6 were generated according to the following assay procedure or minor modifications thereof. Assays are performed in 96-well tissue culture plates. […]

Experiment [1] deals with RFR (resistant strains selected from RF against Example 1). In words: CEM-T4 cell infection assay, reverse transcriptase readout, resistant isolate RFR. In kind it is cell-based, HIV-1. As to conditions: Human immunodeficiency virus 1, CEM-T4, 168 h, 7 days, read-out: Virus Isolate (EC50 ng/mL) RFR.
Description: as §1, §2

Experiment [2] relates to RFR2 (RFR cloned by three rounds of limiting dilution). In words: CEM-T4 cell infection assay, reverse transcriptase readout, resistant isolate RFR2. In kind it is cell-based, HIV-1. As to conditions: Human immunodeficiency virus 1, 168 h, Table 6, CEM-T4 cells, 7 days, read-out: Virus Isolate (EC50 ng/mL) RFR2.
Description: as §1, §2

Experiment [3] relates to RFRR (resistant strains selected from RF against Examples 1 and 2). In words: CEM-T4 cell infection assay, reverse transcriptase readout, resistant isolate RFRR. As to conditions: Human immunodeficiency virus 1, 168 h, Table 6, CEM-T4 cells, 7 days, read-out: Virus Isolate (EC50 ng/mL) RFRR. Format: cell-based, HIV-1.
Description: as §1, §2

≈ marks a conversion by molar mass, not a printed value. Like-named read-outs stand apart in the source and are kept apart here.

Turning to `CC(C)(C)NC(=O)[C@@H]1CC2CCCC[C@@H]2CN1C[C@@H](O)[C@H](Cc1ccccc1)NC(=O)[C@H](CC(N)=O)NC(=O)c1ccc2ccccc2n1` (stereo in doubt) [Example 6, N-tert-Butyl decahydro-2-[2(R)-hydroxy-4-phenyl-3(S)-[[N-(2-quinolylcarbonyl)-L-asparaginyl]amino]butyl]-(4aR,8aS)-isoquinoline-3(S)-carboxamide], the EC50 worked out at 12 ng/mL (≈ 0.0179 µM) in the experiment on HIV-1RF (Table 4, CEM-T4 cells); 6 ng/mL (≈ 0.00894 µM) in the experiment with HIV-1RF (Table 6, CEM-T4 cells); 15 ng/mL (≈ 0.0224 µM) in experiment [1] (Table 4, CEM-T4 cells); 31 ng/mL (≈ 0.0462 µM) in experiment [2]; 962 ng/mL (≈ 1.43 µM) in experiment [3].
Turning to `CC(C)(C)NC(=O)[C@@H]1CN(Cc2cccnc2)CCN1C[C@@H](O)C[C@@H](Cc1ccccc1)C(=O)N[C@H]1c2ccccc2C[C@H]1O` [Example 5, N-(2(R)-Hydroxy-1(S)-indanyl)-2(R)-phenylmethyl-4(S)-hydroxy-5-(1-(4-(3-pyridylmethyl)-2(S)-N′-(t-butylcarboxamido)-piperazinyl))-pentaneamide], the EC50 in the experiment with HIV-1RF (Table 4, CEM-T4 cells) worked out at 44 ng/mL (≈ 0.0717 µM); in the experiment with HIV-1RF (Table 6, CEM-T4 cells) it was 6 ng/mL (≈ 0.00978 µM); in experiment [1] (Table 4, CEM-T4 cells), 7 ng/mL (≈ 0.0114 µM); in experiment [2], 57 ng/mL (≈ 0.0929 µM); in experiment [3], 982 ng/mL (≈ 1.6 µM).
In the case of `CNCC(=O)N[C@H](C(=O)N[C@@H](Cc1ccccc1)[C@H](O)CN(CCC(C)C)C(=O)NC(C)(C)C)C(C)(C)C` [Example 2, (2R,3S)-3-(N-methylaminoacetyl-L-tert-butylglycinyl)amino-1-(N-isoamyl-N-(tert-butylcarbamoyl))amino-4-phenyl-2-butanol], the EC50 with HIV-1RF (Table 4, CEM-T4 cells) is 40 ng/mL (≈ 0.0749 µM); in the experiment on HIV-1RF (Table 6, CEM-T4 cells), 35 ng/mL (≈ 0.0656 µM); in experiment [1] (Table 4, CEM-T4 cells), 8 ng/mL (≈ 0.015 µM); in experiment [2], 367 ng/mL (≈ 0.688 µM); in experiment [3], 1110 ng/mL (≈ 2.08 µM).
As for `CC(C)CN(C[C@@H](O)[C@H](Cc1ccccc1)NC(=O)[C@H](CC(N)=O)NC(=O)c1ccc2ccccc2n1)S(=O)(=O)NC(C)(C)C` [Example 8, N-[3-[N^2-[N^1-(1,1-dimethylethyl)aminosulfonyl]-N^2-(2-methylpropyl)amino]-2R-hydroxy-1S-(phenylmethyl)propyl]-2S-[(2-quinolinylcarbonyl)amino]butanediamide], the EC50 came out at 2 ng/mL (≈ 0.00312 µM) in the experiment with HIV-1RF (Table 5, CEM-T4 cells) and 1 ng/mL (≈ 0.00156 µM) in experiment [1] (Table 5, CEM-T4 cells).
In the case of `CC(C)CN(C[C@@H](O)[C@H](Cc1ccccc1)NC(=O)[C@H](CC(N)=O)NC(=O)c1ccc2ccccc2n1)C(=O)NC(C)(C)C` (relative stereo) [Example 1, [1S-[1R*(R*),2S*]]-N^1-[3-[[[(1,1-dimethylethyl)amino]carbonyl])2-methylpropyl)amino]-2-hydroxy-1-(phenylmethyl)propyl]-2-[(2-quinolinylcarbonyl)amino]-butanediamide], the EC50 is 30 ng/mL (≈ 0.0496 µM) in the experiment on HIV-1RF (Table 4, CEM-T4 cells); 24 ng/mL (≈ 0.0397 µM) in the experiment with HIV-1RF (Table 5, CEM-T4 cells); 19 ng/mL (≈ 0.0314 µM) in the experiment with HIV-1RF (Table 6, CEM-T4 cells); 223 ng/mL (≈ 0.369 µM) in experiment [1] (Table 4, CEM-T4 cells); 394 ng/mL (≈ 0.652 µM) in experiment [1] (Table 5, CEM-T4 cells); 880 ng/mL (≈ 1.46 µM) in experiment [2]. In addition, the EC50 in experiment [3] is 5610 ng/mL (≈ 9.27 µM).
In the case of `CC(C)CCN(C[C@@H](O)[C@H](Cc1ccccc1)NC(=O)[C@H](CC(N)=O)NC(=O)c1ccc2ccccc2n1)C(=O)NC(C)(C)C` (relative stereo) [Example 7, [1S-[1R*(R*),2S*]]-N^1-[3-[[[(1,1-dimethylethyl)amino]carbonyl](3-methylbutyl)amino]-2-hydroxy-1-(phenylmethyl)propyl]-2-[(2-quinolinylcarbonyl)amino]-butanediamide], the EC50 with HIV-1RF (Table 5, CEM-T4 cells) was found to be 2 ng/mL (≈ 0.00323 µM); in experiment [1] (Table 5, CEM-T4 cells), 78 ng/mL (≈ 0.126 µM).
